Source: article PMC8296573, “Synthesis and Biological Evaluation of Fingolimod Derivatives as Antibacterial Agents” (ACS Omega, 2021)
Converted amounts (≈) assume the structure as drawn. Where two headings read alike, the source gives them in different places.

Key:
A. baumannii NCTC 13423 = assay: Antibacterial activity, pre-exposure; type: cell-based, Acinetobacter baumannii; settings: for Average inhibition %, biofilms viability / Average inhibition %, planktonic cells viability / inhibition at 10 µM / inhibition at 15 µM / inhibition at 25 µM / inhibition at 50 µM: A. baumannii NCTC 13423, pre-exposure, ± SD; for inhibition at 10 µM / inhibition at 15 µM / inhibition at 25 µM / inhibition at 50 µM: Acinetobacter baumannii, NCTC13423
In short: (§1)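 Bacteria and compound were co-incubated from the start for 18 h at 37 °C, 220 rpm. Planktonic cells scored by turbidity plus resazurin reduction; washed biofilms scored by 20 μM resazurin (30, 60, 90 min for S. aureus, A. baumannii, P. aeruginosa) and ethanol-fixed crystal violet staining.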

P. aeruginosa ATCC 9027 = assay: Antibacterial activity, pre-exposure; type: cell-based, Pseudomonas aeruginosa; settings: for Average inhibition %, biofilms viability / Average inhibition %, planktonic cells viability / inhibition at 50 µM / inhibition at 100 µM / inhibition at 150 µM / inhibition at 200 µM: P. aeruginosa ATCC 9027, pre-exposure, ± SD; for inhibition at 50 µM / inhibition at 100 µM / inhibition at 150 µM / inhibition at 200 µM: Pseudomonas aeruginosa, ATCC9027
In short: as §1

S. aureus ATCC 25923 [1] = assay: Antibacterial activity, post-exposure on preformed 18-h-old biofilms; type: cell-based, Staphylococcus aureus; settings: ± SD; for inhibition at 25 µM / inhibition at 50 µM / inhibition at 100 µM / inhibition at 200 µM: Staphylococcus aureus; for inhibition at 25 µM: ATCC25923, 25 µM; for inhibition at 50 µM: ATCC25923, 50 µM; for inhibition at 100 µM: ATCC25923, 100 µM; for inhibition at 200 µM: ATCC25923, 200 µM
In short: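 Compounds were applied to preformed 18-h biofilms after medium change and left 24 h. Read-outs: planktonic OD plus resazurin fluorescence (20 μM), biofilm metabolic activity by resazurin 30 min at 37 °C, then biomass by crystal violet absorbance at 595 nm after ethanol fixation.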

S. aureus ATCC 25923 [2] = assay: Antibacterial activity, pre-exposure (planktonic cells and biofilm formation); type: cell-based, Staphylococcus aureus; settings: for MIC / inhibition at 5 µM / inhibition at 10 µM / inhibition at 15 µM / inhibition at 25 µM: Staphylococcus aureus, ATCC25923; for inhibition at 5 µM / inhibition at 10 µM / inhibition at 15 µM / inhibition at 25 µM / Average inhibition %, biofilms viability / Average inhibition %, planktonic cells viability: pre-exposure, ± SD
In short: as §1

[3] = 10 µM, read-out: Average inhibition %, biofilms biomass
[4] = 10 µM, read-out: Average inhibition %, planktonic cells turbidity
[5] = 15 µM, read-out: Average inhibition %, biofilms biomass
[6] = 15 µM, read-out: Average inhibition %, planktonic cells turbidity
[7] = 25 µM, read-out: Average inhibition %, biofilms biomass
[8] = 25 µM, read-out: Average inhibition %, planktonic cells turbidity
[9] = 50 µM, read-out: Average inhibition %, biofilms biomass
[10] = 50 µM, read-out: Average inhibition %, planktonic cells turbidity
[11] = read-out: Average inhibition %, biofilms biomass
[12] = read-out: Average inhibition %, planktonic cells turbidity

For `CCCCCCCCc1ccc2cc(CC(N)(CO)CO)ccc2c1` [Compound 79, 2-Amino-2-[(6-octylnaphthalen-2-yl)methyl]propane-1,3-diol], the “Average inhibition %, biofilms viability” value (A. baumannii NCTC 13423; 10 µM) was 0.3 ± 0.6%, the “Average inhibition %, planktonic cells viability” value (A. baumannii NCTC 13423; 10 µM) was 4.7 ± 4.7% and the “Average inhibition %, biofilms viability” value (A. baumannii NCTC 13423; 15 µM) was 0.7 ± 0.6%. The “Average inhibition %, planktonic cells viability” value (A. baumannii NCTC 13423; 15 µM) was 4.2 ± 4.8%, the “Average inhibition %, biofilms viability” value (A. baumannii NCTC 13423; 25 µM) was 1.2 ± 1.5% and the “Average inhibition %, planktonic cells viability” value (A. baumannii NCTC 13423; 25 µM) was 0 ± 0%. The “Average inhibition %, biofilms viability” value (A. baumannii NCTC 13423; 50 µM) was 6.5 ± 6.4%, the “Average inhibition %, planktonic cells viability” value (A. baumannii NCTC 13423; 50 µM) was 0 ± 0% and the inhibition at 10 µM (A. baumannii NCTC 13423; [3]) was 1.7 ± 3%. It also gave an inhibition at 10 µM (A. baumannii NCTC 13423; [4]) of 0%, an inhibition at 15 µM (A. baumannii NCTC 13423; [5]) of 3.3 ± 5.7% and an inhibition at 15 µM (A. baumannii NCTC 13423; [6]) of 0%. For the same molecule, the inhibition at 25 µM (A. baumannii NCTC 13423; [7]) was 0.2 ± 0.4%, the inhibition at 25 µM (A. baumannii NCTC 13423; [8]) was 0% and the inhibition at 50 µM (A. baumannii NCTC 13423; [9]) was 3.3 ± 5.1%. The inhibition at 50 µM (A. baumannii NCTC 13423; [10]) was 0.3 ± 0.6%, the “MIC A. baumannii NCTC 13423” value (A. baumannii NCTC 13423; pre-exposure, Inactive = no activity up to 50 μM, > = some inhibition but no MIC reached) was “Inactive” and the “Average inhibition %, biofilms viability” value (P. aeruginosa ATCC 9027; 50 µM) was 0 ± 0%. The “Average inhibition %, planktonic cells viability” value (P. aeruginosa ATCC 9027; 50 µM) was 3.9 ± 3.6%, the “Average inhibition %, biofilms viability” value (P. aeruginosa ATCC 9027; 100 µM) was 0 ± 0% and the “Average inhibition %, planktonic cells viability” value (P. aeruginosa ATCC 9027; 100 µM) was 1.9 ± 2.3%. For the same molecule, the “Average inhibition %, biofilms viability” value (P. aeruginosa ATCC 9027; 150 µM) was 0.5 ± 0.9%, the “Average inhibition %, planktonic cells viability” value (P. aeruginosa ATCC 9027; 150 µM) was 4.2 ± 7.4% and the “Average inhibition %, biofilms viability” value (P. aeruginosa ATCC 9027; 200 µM) was 2.1 ± 3.6%. For the same molecule, the “Average inhibition %, planktonic cells viability” value (P. aeruginosa ATCC 9027; 200 µM) was 7.6 ± 13.1%, the inhibition at 50 µM (P. aeruginosa ATCC 9027; [9]) was 1.2 ± 1.5% and the inhibition at 50 µM (P. aeruginosa ATCC 9027; [10]) was 23.6 ± 9%. For the same molecule, the inhibition at 100 µM (P. aeruginosa ATCC 9027; 100 µM, read-out: Average inhibition %, biofilms biomass) was 3.6 ± 4.7%, the inhibition at 100 µM (P. aeruginosa ATCC 9027; 100 µM, read-out: Average inhibition %, planktonic cells turbidity) was 23 ± 3.8% and the inhibition at 150 µM (P. aeruginosa ATCC 9027; 150 µM, read-out: Average inhibition %, biofilms biomass) was 6.1 ± 5.3%. It also gave an inhibition at 150 µM (P. aeruginosa ATCC 9027; 150 µM, read-out: Average inhibition %, planktonic cells turbidity) of 28 ± 2.4%, an inhibition at 200 µM (P. aeruginosa ATCC 9027; 200 µM, read-out: Average inhibition %, biofilms biomass) of 0% and an inhibition at 200 µM (P. aeruginosa ATCC 9027; 200 µM, read-out: Average inhibition %, planktonic cells turbidity) of 25 ± 2.8%. For the same molecule, the “MIC P. aeruginosa ATCC 9027” value (P. aeruginosa ATCC 9027; pre-exposure, Inactive = no activity up to 200 μM, > = some inhibition but no MIC reached) was “Inactive”, the “Average inhibition %, biofilms viability” value (S. aureus ATCC 25923 [1]; 25 µM) was 15.4 ± 3.3% and the “Average inhibition %, planktonic cells viability” value (S. aureus ATCC 25923 [1]; 25 µM) was 0.3 ± 0.6%. The “Average inhibition %, biofilms viability” value (S. aureus ATCC 25923 [1]; 50 µM) was 23.3 ± 4.3%, the “Average inhibition %, planktonic cells viability” value (S. aureus ATCC 25923 [1]; 50 µM) was 0 ± 0% and the “Average inhibition %, biofilms viability” value (S. aureus ATCC 25923 [1]; 100 µM) was 28.7 ± 6.3%. The “Average inhibition %, planktonic cells viability” value (S. aureus ATCC 25923 [1]; 100 µM) was 23.6 ± 15.5%, the “Average inhibition %, biofilms viability” value (S. aureus ATCC 25923 [1]; 200 µM) was 28.8 ± 6.5% and the “Average inhibition %, planktonic cells viability” value (S. aureus ATCC 25923 [1]; 200 µM) was 57 ± 23.8%. It also gave an inhibition at 25 µM (S. aureus ATCC 25923 [1]; [11]) of 21.5 ± 4.7%, an inhibition at 25 µM (S. aureus ATCC 25923 [1]; [12]) of 16.1 ± 25.9% and an inhibition at 50 µM (S. aureus ATCC 25923 [1]; [11]) of 29.7 ± 10.3%. The inhibition at 50 µM (S. aureus ATCC 25923 [1]; [12]) was 12.4 ± 8.3%, the inhibition at 100 µM (S. aureus ATCC 25923 [1]; [11]) was 36.6 ± 6.4% and the inhibition at 100 µM (S. aureus ATCC 25923 [1]; [12]) was 25.7 ± 16.3%. It also gave an inhibition at 200 µM (S. aureus ATCC 25923 [1]; [11]) of 43.1 ± 20.9%, an inhibition at 200 µM (S. aureus ATCC 25923 [1]; [12]) of 31.5 ± 11.1% and an MIC (S. aureus ATCC 25923 [2]; lowest concentration with no visible growth (>90% inhibition of turbidity and viability of planktonic cells), 18 h, read-out: MIC S. aureus ATCC 25923) of 10 µM (≈ 3.44 µg/mL). For the same molecule, the inhibition at 5 µM (S. aureus ATCC 25923 [2]; 5 µM, read-out: Average inhibition %, biofilms biomass) was 37.5 ± 32.5%, the inhibition at 5 µM (S. aureus ATCC 25923 [2]; 5 µM, read-out: Average inhibition %, planktonic cells turbidity) was 15.2 ± 17.2% and the inhibition at 10 µM (S. aureus ATCC 25923 [2]; [3]) was 91.3 ± 5.8%. For the same molecule, the inhibition at 10 µM (S. aureus ATCC 25923 [2]; [4]) was 98.7 ± 0.9%, the inhibition at 15 µM (S. aureus ATCC 25923 [2]; [5]) was 92.1 ± 4.9% and the inhibition at 15 µM (S. aureus ATCC 25923 [2]; [6]) was 98.7 ± 1%. For the same molecule, the inhibition at 25 µM (S. aureus ATCC 25923 [2]; [7]) was 92.5 ± 4.2%, the inhibition at 25 µM (S. aureus ATCC 25923 [2]; [8]) was 98.5 ± 1% and the MIC (S. aureus ATCC 25923 [2]; read-out: MIC (S. aureus)) was 10 µM (≈ 3.44 µg/mL). The “Average inhibition %, biofilms viability” value (S. aureus ATCC 25923 [2]; 5 µM) was 28 ± 2.7%, the “Average inhibition %, planktonic cells viability” value (S. aureus ATCC 25923 [2]; 5 µM) was 26.3 ± 24.3% and the “Average inhibition %, biofilms viability” value (S. aureus ATCC 25923 [2]; 10 µM) was 98.1 ± 0.5%. For the same molecule, the “Average inhibition %, planktonic cells viability” value (S. aureus ATCC 25923 [2]; 10 µM) was 99.8 ± 0%, the “Average inhibition %, biofilms viability” value (S. aureus ATCC 25923 [2]; 15 µM) was 99.3 ± 0.2% and the “Average inhibition %, planktonic cells viability” value (S. aureus ATCC 25923 [2]; 15 µM) was 99.8 ± 0.1%. For the same molecule, the “Average inhibition %, biofilms viability” value (S. aureus ATCC 25923 [2]; 25 µM) was 99.2 ± 0.3% and the “Average inhibition %, planktonic cells viability” value (S. aureus ATCC 25923 [2]; 25 µM) was 99.9 ± 0.2%.
